Patent publication US6160008A, “Pharmaceutical compositions comprising S-alkylisothiouronium derivatives” (priority 1996, dated 2000)
Entries after “also recorded” stand apart in the source; their conditions may differ.

Experiments:
[1] = system: acute arterial hypotension, caused by prazosin; test: Acute arterial hypotension caused by prazosin (Table 3); format: in vivo, cats; conditions: prazosin alone 1 mg/kg i.v.
Procedure: It was of interest to study the influence of S-ethylisothiouronium diethylphosphate the in case of hypotension caused by the injection of a known α1-adreno blocker, namely prazosin. Prazosin was injected singly intravenously at a dose of 1 mg/kg.

arterial blood pressure = test: Influence of single intravenous injection on arterial blood pressure, heart rate and respiratory rate in anesthetized cats (Table 1, FIGS. 1-10); format: in vivo; conditions: 5 mg/kg i.v.; for Hypertensive activity (increase of SAP): given as "> SAP by"
Procedure: Experiments were performed on 52 anesthetized (intraperitoneally with 45 mg/kg of sodium pentobarbital) cats of both genders with body mass of 2.8-4.2 kg. Arterial pressure was measured by a mercury pressure gauge; measurements were also performed by ECG. Simultaneously, the respiratory frequency was registered. The hypertensive effect was determined as percent increase relative to the initial level of systolic arterial pressure (SAP). The duration of observation was 1-3 hours; the heart rate (HR) was calculated on the basis of ECG.

[2] = system: acute arterial hypotension, caused by the hexamethonium administration; test: Acute arterial hypotension caused by hexamethonium (Table 5); format: in vivo, cats
Procedure: The influence of S-ethylisothiouronium diethylphosphate on the background of arterial hypotension caused by a known ganglion blocker-hexamethonium has been studied in cats. Hexamethonium was injected intra- venously at a dose of 10 mg/kg. Vagus and schiatic nerve stimulation was carried out by electrical pulsator with the above-threshold rectangular pulse current having a duration of 1 msec, irritation time of 10 sec, and frequency of 20 pulses/sec (peripheral section of the vagus nerve), and frequency of 300 pulses/sec (central end of the schiatic nerve).

α1-adrenoreceptors = conditions: cited from earlier work
[3] = system: mice exposed to an oxygen pressure of 3 atm; test: Survival under oxygen pressure of 3 atm, mice (Table 15); format: in vivo, F1 (CBAx57B1); conditions: mice, 3 atm, 5 hours
Procedure: Animals were exposed to oxygen under increased pressure in a hyperbaric chamber <<Mana-2≤≤ for treatment of infants above 1 year, which was adjusted for the experiments on animals. The hyperbaric chamber design permitted to create excessive pressure up to 3 atm and to observe animal behavior from outside.
The experiments were performed on males of F1 (CBAx57B1) mice line and on males of Wistar rat line. Animals were placed in the hyperbaric chamber in plastic boxes and the atmospheric air was replaced by oxygen. The period of compression-decompression was 10 minutes. The exposure of the animals to an oxygen pressure of 3 atm during a period of 2 hours caused only some increase in their motion activity. Further staying of rats and mice in those conditions led to a decrease in the motion activity, to asphyxia with short periods of excitement and cramps. The death of some animals was registered after 2.5-3 hours, 50% after 4 hours, and 75% of mice and 100% of rats were dead after 5 hours.
When the influence of Difetur and Etyron was studied, the animals were exposed to an oxygen pressure of 3 atm during 5 hours if not otherwise specified. Preparations were injected 5-10 minutes before the session.

[4] = system: increased oxygen pressure; conditions: cited from earlier work
[5] = listed as S-isopropylisothiuronium metaphosphate
[6] = hexamethonium alone 10 mg/kg i.v., 2nd min
[7] = listed as S-isopropylisothiuronium isopropylphosphite
[8] = listed as S-ethylisothiuronium methylphosphate
[9] = listed as S-methylisothiuronium dimethylphosphate
[10] = listed as S-isobutylisothiuronium isobutylphosphate

With `COc1cc2nc(N3CCN(C(=O)c4ccco4)CC3)nc(N)c2cc1OC` [prazosin, reference compound] the AP after prazosin ([1]; 5th min) was 106.3 ± 2.4 mm Hg, the HF after prazosin ([1]; 5th min) was 156.8 ± 9.0 per min and the “Respiratory contraction frequency after prazosin” value ([1]; 5th min) was 13.6 ± 2.9 min⁻¹. It also gave an AP decrease ([1]; 5th minute) of 51 mm Hg.

With `CC(C)SC(=N)N` [S-isopropylisothiouronium metaphosphate] the Duration of effect (arterial blood pressure) was at least 2 h, the “Hypertensive effect in words” value (arterial blood pressure) was “slowly increases SAP” and the “RR (influence on respiratory rate)” value (arterial blood pressure) was “does not influence RR”. For the same molecule, the “Time to achieve maximum effect” value (arterial blood pressure) was 15 min, the “Hypertensive activity (increase of SAP)” value (arterial blood pressure; [5]) was 27 mm Hg and the Duration of effect (arterial blood pressure; [5]) was 2 h. For the same molecule, the “Hypertensive activity, % (increase relative to the initial level of SAP)” value (arterial blood pressure; [5]) was 20.3%, the “Influence on HR” value (arterial blood pressure; [5]) was “Bradycardia” and the “RR (influence on respiratory rate)” value (arterial blood pressure; [5]) was “Increases”. For the same molecule, the “Time to achieve maximum effect” value (arterial blood pressure; [5]) was 15 min.

With `C[N+](C)(C)CCCCCC[N+](C)(C)C` [hexamethonium, reference compound] the “AP after hexonium injection” value [2, 6] was 91.0 ± 10.0 mm Hg, the “HF after hexonium injection” value [2, 6] was 137.6 ± 13.4 per min and the AP decrease ([2]; hexamethonium alone, 2 minutes) was 46%.

For `CC(C)SC(=N)N` [S-isopropylisothiouronium isopropylphosphite], the Duration of effect (arterial blood pressure) was “at least 2 hour”, the “Hypertensive activity, % (increase relative to the initial level of SAP)” value (arterial blood pressure) was about 30% and the “Hypertensive effect in words” value (arterial blood pressure) was “one of the most active substances”. The “Influence on HR” value (arterial blood pressure) was “Transient bradycardia”, the “RR (influence on respiratory rate)” value (arterial blood pressure) was “does not influence RR” and the “Time to achieve maximum effect” value (arterial blood pressure) was “second minute”. For the same molecule, the “Hypertensive activity (increase of SAP)” value (arterial blood pressure; [7]) was 40 mm Hg, the Duration of effect (arterial blood pressure; [7]) was 2 h and the “Hypertensive activity, % (increase relative to the initial level of SAP)” value (arterial blood pressure; [7]) was 28.8%. The “Influence on HR” value (arterial blood pressure; [7]) was “Bradycardia”, the “RR (influence on respiratory rate)” value (arterial blood pressure; [7]) was “No influence” and the “Time to achieve maximum effect” value (arterial blood pressure; [7]) was 2 min.

For `CNCC(O)c1cccc(O)c1.Cl` (centres unmarked) [Mezaton, 1-(m-hydroxyphenyl)-2-methylaminoethanol hydrochloride], the “Pharmacological action in words” value (α1-adrenoreceptors; in vivo, hydrochloride) is listed as “selectively stimulates α1-adrenoreceptors; also recorded: practically does not have cardiostimulating effect” and the “Duration of anti-hypotensive effect” value (α1-adrenoreceptors; single intravascular injection) is listed as “approximately 20 minutes”.

In the case of `CCSC(=N)N` [S-ethylisothiouronium metaphosphate], the Duration of effect (arterial blood pressure) is reported as 1.5 h, the “Hypertensive activity, % (increase relative to the initial level of SAP)” value (arterial blood pressure) is reported as 15% and the “RR (influence on respiratory rate)” value (arterial blood pressure) is reported as “does not influence RR”. For the same molecule, the “Time to achieve maximum effect” value (arterial blood pressure) was 2 min, the “Hypertensive activity (increase of SAP)” value (arterial blood pressure) was 25 mm Hg and the “Hypertensive activity (increase of SAP)” value (arterial blood pressure; [8]) was 25 mm Hg. The Duration of effect (arterial blood pressure; [8]) was “up to 1 hour”, the “Hypertensive activity, % (increase relative to the initial level of SAP)” value (arterial blood pressure; [8]) was 14.8% and the “Influence on HR” value (arterial blood pressure; [8]) was “Bradycardia”. For the same molecule, the “RR (influence on respiratory rate)” value (arterial blood pressure; [8]) was “No influence”.

For `CSC(=N)N` [S-methylisothiouronium dimethylphosphate], the Duration of effect (arterial blood pressure) was 1.5 h, the “Hypertensive activity, % (increase relative to the initial level of SAP)” value (arterial blood pressure) was about 30% and the “Hypertensive activity (increase of SAP)” value (arterial blood pressure; [9]) was 27.5 mm Hg. For the same molecule, the Duration of effect (arterial blood pressure; [9]) was 1.5 h and the “Hypertensive activity, % (increase relative to the initial level of SAP)” value (arterial blood pressure; [9]) was 20.8%.

In the case of `CC(C)CSC(=N)N` [S-isobutylisothiouronium isobutylphosphite], the Duration of effect (arterial blood pressure) is reported as “about 2 hour”, the “Hypertensive activity, % (increase relative to the initial level of SAP)” value (arterial blood pressure) is reported as 14.8% and the “Hypertensive effect in words” value (arterial blood pressure) is reported as “moderate hypertensive effect”. For the same molecule, the “Influence on HR” value (arterial blood pressure) was “increasing HR”, the “RR (influence on respiratory rate)” value (arterial blood pressure) was “increasing HR and RR” and the “Time to achieve maximum effect” value (arterial blood pressure) was 2 min. For the same molecule, the “Hypertensive activity (increase of SAP)” value (arterial blood pressure) was 22.6 mm Hg, the Duration of effect (arterial blood pressure; [10]) was 2 h and the “RR (influence on respiratory rate)” value (arterial blood pressure; [10]) was “Increases”.

For `CCCCSC(=N)N` [S-butylisothiouronium dibutylphosphate, S-butylisothiouronium di-butylphosphate], the Duration of effect (arterial blood pressure) was 1 h, the “Hypertensive activity, % (increase relative to the initial level of SAP)” value (arterial blood pressure) was 5.6% and the “Hypertensive effect in words” value (arterial blood pressure) was “slightly increases arterial blood pressure”. For the same molecule, the “RR (influence on respiratory rate)” value (arterial blood pressure) was “No influence”, the “Time to achieve maximum effect” value (arterial blood pressure) was 30 min and the “Hypertensive activity (increase of SAP)” value (arterial blood pressure) was 7 mm Hg. For the same molecule, the Duration of effect (arterial blood pressure; listed as S-butylisothiuronium dibutylphosphate) was “up to 1 hour”.

For `Br.CCSC(=N)N` [Etyron, S-ethylisothiouronium bromide, reference compound], the “Number of survived animals” value ([3]; 10 mg/kg) is listed as 70%, the “Number of survived animals” value ([3]; 20 mg/kg) is listed as 50% and the “Protective activity in words” value [4] is listed as “protective activity under increased oxygen pressure”.
